Laboratory results reported in patent publication EP0255343A2, “L-aspartylfenchylamino alcohol derivatives” (priority 1986, dated 1988).
Residues, ends and D or L forms follow the SMILES beside them.

Assays:
[1] = Sweetness threshold values determined by a limit method by a panel of 5 skilled flavorists; format: in vivo; settings: for Taste intensity Threshold Values (%): dissolved in water, limit method, panel of 5 skilled flavorists; for Degree of Sweetness (time): relative to sucrose = 1
[2] = at 80°C and at a pH of 4; cited from earlier work

OC[C@H]1O[C@@](CO)(O[C@H]2O[C@H](CO)[C@@H](O)[C@H](O)[C@H]2O)[C@@H](O)[C@@H]1O [Sucrose, sucrose]
Taste intensity Threshold Values (%) [1]: 0.6%

COC(=O)C(NC(=O)[C@@H](N)CC(=O)O)C(=O)OC1C2(C)CCC(C2)C1(C)C (mixture of isomers) [L-aspartyl-DL-aminomalonic acid methyl fenchyl diester]
stability [2]: lower than APM

COC(=O)[C@H](Cc1ccccc1)NC(=O)[C@@H](N)CC(=O)O [APM, L-aspartyl-L-phenylalanine methyl ester] (H-Asp-Phe-OMe)
Taste intensity Threshold Values (%) [1]: 0.004% | Degree of Sweetness (time) [1]: 150 time

3-N-(L-aspartyl)amino-4-fenchyl-2-butanol [Compound B]
Taste intensity Threshold Values (%) [1]: 0.0012% | Degree of Sweetness (time) [1]: 500 time

3-N-(L-aspartyl)amino-1-fenchyl-2-butanol [Compound A]
Taste intensity Threshold Values (%) [1]: 0.001% | Degree of Sweetness (time) [1]: 600 time
